Experimental data from ChEMBL document CHEMBL1221220, “Transport and signaling via the amino acid binding site of the yeast Gap1 amino acid transceptor” (Nat Chem Biol, 2009).
Changes are numbered by the printed parent chain. The source made the active and inactive calls. No cut-off for these calls is given here.

How the values were obtained:
[1] = system: General amino-acid permease GAP1 (Saccharomyces cerevisiae), P19145 [I394C]; assay: Inhibition of yeast Gap1 I394C mutant-mediated trehalose activation at 10 mM
[2] = system: T1, General amino-acid permease GAP1 (Saccharomyces cerevisiae), P19145 [A403C]; assay: Induction of yeast Gap1 A403C mutant-mediated […] activation at 2 mM in presence of 10 mM MTSEA treated before compound addition
T1 sequence (whole entry): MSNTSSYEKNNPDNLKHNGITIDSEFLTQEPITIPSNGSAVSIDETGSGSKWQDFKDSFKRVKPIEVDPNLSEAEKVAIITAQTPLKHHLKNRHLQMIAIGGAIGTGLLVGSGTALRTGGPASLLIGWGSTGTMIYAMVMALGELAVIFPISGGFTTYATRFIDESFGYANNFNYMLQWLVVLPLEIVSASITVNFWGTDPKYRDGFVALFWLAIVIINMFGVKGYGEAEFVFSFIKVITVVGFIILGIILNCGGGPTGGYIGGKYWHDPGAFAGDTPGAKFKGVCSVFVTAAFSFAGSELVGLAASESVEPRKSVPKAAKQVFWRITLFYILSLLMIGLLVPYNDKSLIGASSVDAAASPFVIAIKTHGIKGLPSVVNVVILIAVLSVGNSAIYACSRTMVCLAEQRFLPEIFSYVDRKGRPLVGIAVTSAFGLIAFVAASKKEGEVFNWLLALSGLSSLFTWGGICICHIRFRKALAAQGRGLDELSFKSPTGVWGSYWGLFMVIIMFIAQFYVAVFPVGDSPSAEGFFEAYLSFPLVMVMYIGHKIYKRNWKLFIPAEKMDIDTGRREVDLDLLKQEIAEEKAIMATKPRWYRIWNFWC

Saccharomyces cerevisiae = assay: Induction of yeast Gap1 L404 mutant-mediated amino acid uptake at 2 mM in presence of 10 mM MTSEA treated before compound addition
[3] = system: T2, General amino-acid permease GAP1 (Saccharomyces cerevisiae), P19145 [A385C]; assay: Induction of yeast Gap1 A385C mutant-mediated […] activation at 2 mM in presence of 10 mM MTSEA treated before compound addition
T2 sequence (whole entry): T1 sequence (whole entry) with A385C, C403A

[4] = system: T3, General amino-acid permease GAP1 (Saccharomyces cerevisiae), P19145 [V381C]; assay: Induction of yeast Gap1 V381C mutant-mediated trehalose activation at 2 mM in presence of 10 mM MTSEA treated before compound addition
T3 sequence (whole entry): T1 sequence (whole entry) with V381C, C403A

[5] = system: T4, General amino-acid permease GAP1 (Saccharomyces cerevisiae), P19145 [A396C]; assay: Activation of yeast Gap1 A396C mutant-mediated amino acid uptake at 10 mM
T4 sequence (whole entry): T1 sequence (whole entry) with A396C, C403A

[6] = system: General amino-acid permease GAP1 (Saccharomyces cerevisiae), P19145 [I394C]; assay: Inhibition of yeast Gap1 I394C mutant-mediated amino acid uptake at 10 mM

General amino-acid permease GAP1 (Saccharomyces cerevisiae), P19145 [I394C], sequence (P19145 whole entry I394C): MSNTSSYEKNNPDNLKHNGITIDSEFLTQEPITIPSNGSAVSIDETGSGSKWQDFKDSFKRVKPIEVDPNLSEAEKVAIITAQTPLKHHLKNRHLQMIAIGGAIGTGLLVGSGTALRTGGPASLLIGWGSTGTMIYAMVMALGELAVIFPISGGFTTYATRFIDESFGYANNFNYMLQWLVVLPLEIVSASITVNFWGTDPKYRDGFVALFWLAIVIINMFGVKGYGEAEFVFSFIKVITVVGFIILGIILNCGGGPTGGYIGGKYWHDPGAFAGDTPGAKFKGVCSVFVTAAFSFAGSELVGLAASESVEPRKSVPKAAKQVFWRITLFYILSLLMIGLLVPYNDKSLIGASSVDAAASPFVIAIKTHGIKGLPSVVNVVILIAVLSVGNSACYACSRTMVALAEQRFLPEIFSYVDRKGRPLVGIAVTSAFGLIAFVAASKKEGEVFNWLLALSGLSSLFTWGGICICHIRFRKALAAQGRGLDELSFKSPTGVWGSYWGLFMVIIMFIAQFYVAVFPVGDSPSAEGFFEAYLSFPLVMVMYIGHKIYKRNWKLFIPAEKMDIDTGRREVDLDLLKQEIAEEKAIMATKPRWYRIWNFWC

inhibition [1]: Active | inhibition [2]: Active | Activity (Saccharomyces cerevisiae): Active | inhibition [3]: Active | inhibition [4]: Active | Activity [5]: inactive | inhibition [6]: Active
SMILES: NC(=O)NCCC[C@H](N)C(=O)O
